Measurements: US20160158200A1, “Combinations of Hepatitis C Virus Inhibitors” (priority 2013, published 2016)

system: HCV genotype-1a variant with glutamine 30 changed to glutamate in the NS5A protein; format: cell-based; details: test compound titrated with BMS-790052 fixed at 200 nM; genotype 1a Q30E replicon
Outline: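 Synergy was assessed by combining several fixed amounts of an NS5A-targeting compound with a titration of the second compound of interest.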

| Structure (SMILES) | Fold-Synergistic 1a (Q30E) [fold] |
| --- | --- |
| CC(C)(C)C(NC(=O)C1(C)CC1(F)F)c1nc(-c2ccc(-c3ccc(-c4c[nH]c(C(NC(=O)C5(C)CC5(F)F)C(C)(C)C)n4)cc3)cc2)c[nH]1 (single isomer, unassigned) [Compound L-58a] | >100 |
| O=C(c1ccccc1Oc1ccccc1)N1CCC[C@H]1c1ncc(-c2ccc(-c3ccc(-c4cnc([C@@H]5CCCN5C(=O)c5ccccc5Oc5ccccc5)[nH]4)cc3)cc2)[nH]1 [Compound S-114] | <10 |
| CC(C)(C)[C@H](NC(=O)C1C(C)(C)C1(C)C)c1nc(-c2ccc(-c3ccc(-c4c[nH]c([C@@H](NC(=O)C5C(C)(C)C5(C)C)C(C)(C)C)n4)cc3)cc2)c[nH]1 [Compound N-55] | >100 |
| CC(C)CC(=O)N[C@H](c1ncc(-c2ccc(-c3ccc(-c4cnc([C@@H]5CCCN5C(=O)CC(C)C)[nH]4)cc3)cc2)[nH]1)C(C)C [Compound Y-16] | >10 |
| CC1([C@H](NC(=O)C(=O)N2CCC(F)(F)CC2)c2nc(-c3ccc(-c4ccc(-c5c[nH]c([C@@H](NC(=O)C(=O)N6CCC(F)(F)CC6)C6(C)CC6)n5)cc4)cc3)c[nH]2)CC1.O=C(O)C(F)(F)F [Compound W-39] | >100 |
| CC(C)[C@H](NC(=O)c1cc(Cl)ccc1F)c1ncc(-c2ccc3c(c2)Cc2cc(-c4cnc([C@@H](NC(=O)c5cc(Cl)ccc5F)C(C)C)[nH]4)ccc2-3)[nH]1.O=C(O)C(F)(F)F [Compound N-73] | >100 |
| CC(C)CC(=O)NC1(c2ncc(-c3ccc(-c4ccc(-c5cnc(C6(NC(=O)CC(C)C)CC6)[nH]5)cc4)cc3)[nH]2)CC1.O=C(O)C(F)(F)F.O=C(O)C(F)(F)F [Compound N-21] | <10 |
| CC(C)[C@H](NC(=O)[C@@H]1CCCO1)c1ncc(-c2ccc(-c3ccc(-c4cnc([C@@H](NC(=O)[C@@H]5CCCO5)C(C)C)[nH]4)cc3)cc2)[nH]1 [Compound P-66] | >100 |
| C=C1C[C@@H](C(=O)N[C@H](c2nc(-c3ccc(-c4ccc(-c5c[nH]c([C@@H](NC(=O)[C@@H]6CC(=C)CN6C(=O)OC(C)(C)C)C(C)C)n5)cc4)cc3)c[nH]2)C(C)C)N(C(=O)OC(C)(C)C)C1 [Compound W-89] | >100 |
| CC(C)(C)[C@H](NC(=O)C1CCC(F)(F)CC1)c1nc(-c2ccc(-c3ccc4c(c3)CCc3nc([C@@H](NC(=O)C5CCC(F)(F)CC5)C(C)(C)C)[nH]c3-4)cc2)c[nH]1 [Compound B10] | >100 |
| CC(C)[C@H](NC(=O)c1cc(F)ccc1F)c1ncc(-c2ccc(-c3ccc(-c4cnc([C@@H](NC(=O)c5cc(F)ccc5F)C(C)C)[nH]4)cc3)cc2)[nH]1 [Compound S-63] | >100 |
| CCC(=O)NC1(C(=O)N[C@H](c2nc(-c3ccc(-c4ccc(-c5c[nH]c([C@@H](NC(=O)C6(NC(=O)CC)CCCCC6)C(C)(C)C)n5)cc4)cc3)c[nH]2)C(C)(C)C)CCCCC1 [Compound W-265] | >100 |
| CC(C)[C@H](NC(=O)C(C)(C)C)c1nc(-c2ccc(-c3ccc(-c4c[nH]c([C@@H](NC(=O)C(C)(C)C)C(C)C)n4)cc3F)cc2)c[nH]1.O=C(O)C(F)(F)F [Compound N-100] | >100 |
| CC(C)(C)[C@H](NC(=O)C1CC12CCOCC2)c1ncc(-c2ccc(-c3ccc(-c4cnc([C@@H](NC(=O)C5CC56CCOCC6)C(C)(C)C)[nH]4)cc3)cc2)[nH]1 (single isomer, unassigned) [Compound B70] | >100 |
| CC(C)[C@H](NC(=O)C1CCC(F)(F)CC1)c1nc2ccc(C#CC#Cc3ccc4nc([C@@H](NC(=O)C5CCC(F)(F)CC5)C(C)C)[nH]c4c3)cc2[nH]1 [Compound B52] | >100 |
| COC(=O)N[C@@H](C(=O)N[C@H](c1ncc(-c2ccc(-c3ccc(-c4cnc([C@@H](NC(=O)[C@H](NC(=O)OC)C5CC5)C(C)C)[nH]4)cc3)cc2)[nH]1)C(C)C)C1CC1 [Compound P-102] | >10 |
| CC(O)(CF)C(=O)N[C@H](c1nc(-c2ccc(-c3ccc(-c4c[nH]c([C@@H](NC(=O)C(C)(O)CF)C(C)(C)C)n4)cc3)cc2)c[nH]1)C(C)(C)C (single isomer, unassigned) [Compound N-139A] | >100 |
| CC(C)(C)[C@H](NC(=O)C(C)(C)S(C)(=O)=O)c1nc(-c2ccc(-c3ccc(-c4cnc([C@@H](NC(=O)C(C)(C)S(C)(=O)=O)C(C)(C)C)[nH]4)cc3)cc2)c[nH]1 [Compound B-180] | >100 |
| CC(C)(C)[C@H](NC(=O)C1(c2ccc(Cl)cc2)CCC1)c1nc(-c2ccc(-c3ccc(-c4c[nH]c([C@@H](NC(=O)C5(c6ccc(Cl)cc6)CCC5)C(C)(C)C)n4)cc3)cc2)c[nH]1 [Compound N-57] | >100 |
| CC(C)[C@H](NC(=O)c1cc(Cl)ccc1F)c1ncc(-c2ccc(-c3ccc(-c4cnc([C@@H](NC(=O)c5cc(Cl)ccc5F)C(C)C)[nH]4)cc3)cc2)[nH]1 [Compound Y-24] | >100 |

| Structure (SMILES) | Fold-Synergistic 1a (Q30E) [fold] |
| --- | --- |
| CC(C)(C)[C@H](NC(=O)C(C)(C)C1(O)CCC(F)(F)CC1)c1ncc(-c2ccc(C#Cc3ccc4nc([C@@H](NC(=O)C(C)(C)C5(O)CCC(F)(F)CC5)C(C)(C)C)[nH]c4c3)cc2)[nH]1 [Compound B48A] | >100 |
| O=C(C(=O)N1CCCC1c1nc(-c2ccc(-c3ccc(-c4c[nH]c([C@@H]5CCCN5C(=O)C(=O)N5CCC(F)(F)CC5)n4)cc3)cc2)c[nH]1)N1CCC(F)(F)CC1 (stereo partly drawn) [Compound W-189] | >100 |
| CC(C)(C)OC(=O)NC1(C(=O)N[C@H](c2nc(-c3ccc(-c4ccc(-c5c[nH]c([C@@H](NC(=O)C6(NC(=O)OC(C)(C)C)CC6(F)F)C(C)(C)C)n5)cc4)cc3)c[nH]2)C(C)(C)C)CC1(F)F (single isomer, unassigned) [Compound W-14] | >100 |
| CC(C)(C)[C@H](NC(=O)C1(CO)CCCO1)c1nc(-c2ccc(-c3ccc(-c4c[nH]c([C@@H](NC(=O)C5(CO)CCCO5)C(C)(C)C)n4)cc3)cc2)c[nH]1 (single isomer, unassigned) [Compound Y-111] | >100 |
| CC(C)[C@H](NC(=O)c1cccc2ccccc12)c1ncc(-c2ccc(-c3ccc(-c4cnc([C@@H](NC(=O)c5cccc6ccccc56)C(C)C)[nH]4)cc3)cc2)[nH]1 [Compound S-86] | >100 |
| COC1(C(=O)NC(c2nc(-c3ccc(-c4ccc(-c5c[nH]c(C(NC(=O)C6(OC)CCOC6)C(C)C)n5)cc4)cc3)c[nH]2)C(C)C)CCOC1 (mixture of isomers) [Compound N-159] | >100 |
| CC(C)(C)[C@H](NC(=O)C1(CO)CCCO1)c1nc(-c2ccc(-c3ccc(-c4c[nH]c([C@@H](NC(=O)C5(CO)CCCO5)C(C)(C)C)n4)cc3)cc2)c[nH]1 (single isomer, unassigned) [Compound Y-110] | >100 |
| CC(C)(C)[C@H](NC(=O)[C@H]1C[C@@H]2[C@H](C1)C2(F)F)c1nc(-c2ccc(-c3ccc(-c4c[nH]c([C@@H](NC(=O)[C@H]5C[C@@H]6[C@H](C5)C6(F)F)C(C)(C)C)n4)cc3)cc2)c[nH]1 [Compound Y-10] | >100 |
| CC(C)[C@H](NC(=O)c1ccc(C(F)(F)F)nc1)c1ncc(-c2ccc(-c3ccc(-c4cnc([C@@H](NC(=O)C(C)(C)C)C(C)C)[nH]4)cc3)cc2)[nH]1 [Compound Y-53] | >100 |
| CC(C)(C)OC(=O)NC1(C(=O)N[C@H](c2nc(-c3ccc(-c4ccc(-c5c[nH]c([C@@H](NC(=O)C6(NC(=O)OC(C)(C)C)CC6(F)F)C(C)(C)C)n5)cc4)cc3)c[nH]2)C(C)(C)C)CC1(F)F (single isomer, unassigned) [Compound W-13] | >100 |
| CC(C)(C)[C@H](NC(=O)C1CC12CCOCC2)c1ncc(-c2ccc(-c3ccc(-c4cnc([C@@H](NC(=O)C5CC56CCOCC6)C(C)(C)C)[nH]4)cc3)cc2)[nH]1 (single isomer, unassigned) [Compound B72] | >100 |
| CC(C)(C)OC(=O)NC1(C(=O)NC(c2nc(-c3ccc(-c4ccc(-c5c[nH]c(C(NC(=O)C6(NC(=O)OC(C)(C)C)CCC(F)(F)CC6)C(C)(C)C)n5)cc4)cc3)c[nH]2)C(C)(C)C)CCC(F)(F)CC1 [Compound L-49] | >100 |
| CC(C)OC(=O)N[C@@H](C(=O)N[C@H](c1ncc(-c2ccc(-c3ccc(-c4cnc([C@@H](NC(=O)[C@H](NC(=O)OC(C)C)C(C)C)C(C)C)[nH]4)cc3)cc2)[nH]1)C(C)C)C(C)C [Compound S-250] | >100 |
| CC(C)[C@H](NC(=O)CCN1CCOCC1)c1ncc(-c2ccc(-c3ccc(-c4cnc([C@@H](NC(=O)CCN5CCOCC5)C(C)C)[nH]4)cc3)cc2)[nH]1 [Compound S-62] | <10 |
| CCN(CC(F)(F)F)C(=O)C(=O)N[C@H](c1nc(-c2ccc(-c3ccc(-c4c[nH]c([C@@H](NC(=O)C(=O)N(CC)CC(F)(F)F)C(C)(C)C)n4)cc3)cc2)c[nH]1)C(C)(C)C [Compound W-37] | >100 |
| CC(C)[C@H](NC(=O)c1c(F)cccc1F)c1ncc(-c2ccc(-c3ccc(-c4cnc([C@@H](NC(=O)c5c(F)cccc5F)C(C)C)[nH]4)cc3)cc2)[nH]1 [Compound S-64] | >100 |
| CC1(C(O)C(C)(C)C(=O)N[C@H](c2nc(-c3ccc(-c4ccc(-c5c[nH]c([C@@H](NC(=O)C(C)(C)C(O)C6(C)CC6)C(C)(C)C)n5)cc4)cc3)c[nH]2)C(C)(C)C)CC1 (single isomer, unassigned) [Compound N-151A] | >100 |
| CC(C)[C@H](NC(=O)Cc1ccccc1F)c1ncc(-c2ccc(-c3ccc(-c4cnc([C@@H](NC(=O)Cc5ccccc5F)C(C)C)[nH]4)cc3)cc2)[nH]1 [Compound S-37] | >100 |
| CC(C)(C)[C@H](NC(=O)[C@@H]1CCC(=O)N1)c1nc(-c2ccc(-c3ccc(-c4c[nH]c([C@@H](NC(=O)[C@@H]5CCC(=O)N5)C(C)(C)C)n4)cc3)cc2)c[nH]1.O=C(O)C(F)(F)F.O=C(O)C(F)(F)F [Compound L-10] | >10 |
